In PMC11133798, “Vosoritide treatment for children with hypochondroplasia: a phase 2 trial” (eClinicalMedicine, 2024):

Assays:
[1] = tested on: children with hypochondroplasia; test: Parent-reported quality of life, QoLISSY scale; format: in vivo, human
Protocol: (§1) Secondary outcomes included the change in body proportions as measured by sitting height to standing height ratio and arm span minus standing height, as well as the change in bone age to chronological age ratio after 12 months of therapy. Sitting height was measured three times at each visit using a sitting height table. The average of the three values was used. Sitting height to standing height ratio and arm span minus standing height were standardized for age and sex using available reference data and SDS were calculated.[11]^,[12] Bone age X-rays were read by a single reviewer who was blinded to participant ID, age and time point. Exploratory endpoints included pharmacokinetic parameters, pharmacodynamic markers including collagen X biomarker (CXM) levels and urine cGMP production, and changes in quality of life as measured by the QoLISSY scale.[13] CXM levels in serum were measured in duplicate via an ELISA assay at the Shriners Hospitals for Children in Portland, Oregon as previously described.[14] The average of the two values was used for analysis. Urine samples were obtained for cGMP measurement at baseline and 60, 120, and 240 min after vosoritide injections at the Day 1, Month 6 and Month 12 visits. cGMP levels were assayed at ICON Laboratories (Farmingdale, NY) and were normalized to urine creatinine levels at each time point.
No formal power calculations were done for this proof of principle study. Sample size was determined based on logistical feasibility. Medication adherence was calculated using the number of returned empty vials divided by the number of days of prescribed therapy. Demographics and clinical characteristics were summarized with mean and standard deviation (SD), median and interquartile (IQR) for numerical variables, frequency and proportion for categorical variables. Primary and secondary clinical outcomes were summarized with mean (SD) for the 6-month observation period and the 12-month treatment period. Paired t-tests were carried out to compare the difference between the treatment and observation periods. The corresponding p-value and 95% confidence interval (CI) were reported. Box and whisker plots were used for both primary endpoints (annualized growth velocity and height SDS) and exploratory endpoints (CXM and cGMP) to visualize the trends for the change from baseline to each of the follow-up visits. Safety data (AEs) were summarized as count and percentage of patients as well as the number of total occurrences per each listed AE for the observation period and the treatment period, respectively. As exploratory analyses, the primary endpoints were stratified based on age, baseline growth velocity and baseline height SDS. The summaries of mean (SD) for each visit, mean differences between treatment and observation periods, and the corresponding p-value and 95% CI were all reported. Parent reported quality of life using the QoLISSY scale was also reported with a similar tabular format. Data were analyzed using SAS for Windows version 9.4 (SAS Institute Inc., Cary, NC). A two-sided test with a significance level of 0.05 was used for all hypothesis tests.

[2] = tested on: subjects of trials to date; conditions: in vivo; cited from earlier work
From the text: We will perform a single arm, open‐ label, Phase I/II study of vosoritide in patients with the selected genetic causes of short stature identified above.

[3] = tested on: patients with achondroplasia; conditions: cited from earlier work
[4] = tested on: rat chondrosarcoma cells transfected with FGFR3 containing the hypochondroplasia mutation; conditions: addition of vosoritide; similar to achondroplasia mutation; n=3; ref unpublished BioMarin data; cited from earlier work
From the text: The rationale for using vosoritide in hypochondroplasia is primarily an extension of the positive clinical trial results in patients with achondroplasia, a more severe perturbation of the same gen ...

[5] = tested on: neutral endopeptidase (NEP); conditions: conveyed by Pro-Gly addition on the N-terminus; protocol statement, no data shown; cited from earlier work
From the text: Third, Dr. Dauber (the PI) will p ...

urine cGMP = test: Urine cGMP after vosoritide injection, normalized to urine creatinine; format: in vivo, human
Protocol: as §1

[6] = tested on: children with achondroplasia; conditions: cited from earlier work
From the text: Vosoritide is a c-type natriuretic peptide (CNP) analog that upon binding its receptor on chondrocytes inhibits the mitogen-activated protein kinase (MAPK) pathway. This pathway is downstream of FGFR3 and is activated in hypochondroplasia and achondroplasia. […] Based on this study and additional trials, vosoritide has now been approved in numerous countries for use in children ... || The standing height SDS increased by 0.37 SD during the year of treatment or 0.41 SD using hypochondroplasia specific growth charts. This is slightly greater than the 0.27 SD increase seen in the Phase 3 study of children with achondroplasia. In prior studies with children with achondroplasia, the increase in growth velocity and gains in height SDS have persisted over multiple years.[16]^,[17] Participants in the current study with positive responses to therapy have been enrolled in an ongoing extension study to assess if this will be true in hypochondroplasia as well. It is reassuring that th ...

Sequence: PGQEHPNARKYKGANKKGLSKGCFGLKLDRIGSMSGLGC (disulfide) [vosoritide, recombinant 39-amino-acid C-type natriuretic peptide analog expressed in E. coli, cyclic by an intramolecular disulfide bond]
- Overall or domain specific parental-reported quality of life (QoLISSY) ([1]; 12 months of treatment): no significant changes
- QoLISSY Coping, change during treatment period ([1]; mean, 95% CI (-7.29, 3.75), p=0.51): -1.77
- QoLISSY Belief, change during treatment period ([1]; mean, 95% CI (-9.30, 10.39), p=0.91): 0.54
- QoLISSY Physical, change during treatment period ([1]; mean, 95% CI (-10.25, 7.47), p=0.75): -1.39
- QoLISSY Total (Social, Emotional, Coping), change during treatment period ([1]; mean, 95% CI (-10.55, 4.09), p=0.37): -3.23
- QoLISSY Emotional, change during treatment period ([1]; mean, 95% CI (-12.12, 3.01), p=0.23): -4.56
- QoLISSY Social, change during treatment period ([1]; mean, 95% CI (-12.43, 4.96), p=0.38): -3.74
- QoLISSY Total (Social, Emotional, Coping), Month 6 ([1]; parent-reported, mean, SD (16.08), Day 1 60.33 (18.99)): 61.73
- QoLISSY Treatment, Month 12 ([1]; parent-reported, mean, SD (16.43)): 38.23
- QoLISSY Total (Social, Emotional, Coping), Month 12 ([1]; parent-reported, mean, SD (17.99)): 57.10
- QoLISSY Treatment, Month 6 ([1]; parent-reported, mean, SD (18.36)): 37.86
- QoLISSY Emotional, Month 12 ([1]; parent-reported, mean, SD (18.44)): 62.37
- QoLISSY Coping, Month 12 ([1]; parent-reported, mean, SD (18.71)): 35.79
- QoLISSY Physical, Month 6 ([1]; parent-reported, mean, SD (18.77), Day 1 52.60 (18.22)): 55.38
- QoLISSY Social, Month 6 ([1]; parent-reported, mean, SD (19.50), Day 1 61.46 (21.05)): 61.20
- QoLISSY Physical, Month 12 ([1]; parent-reported, mean, SD (20.09)): 51.22
- QoLISSY Emotional, Month 6 ([1]; parent-reported, mean, SD (20.12), Day 1 66.93 (22.25)): 68.62
- QoLISSY Social, Month 12 ([1]; parent-reported, mean, SD (20.40)): 57.72
- QoLISSY Coping, Month 6 ([1]; parent-reported, mean, SD (20.45), Day 1 38.14 (19.61)): 35.61
- QoLISSY Belief, Month 12 ([1]; parent-reported, mean, SD (22.98)): 66.93
- QoLISSY Belief, Month 6 ([1]; parent-reported, mean, SD (29.10), Day 1 65.22 (28.63)): 62.23
- Serious hypersensitivity reactions [2]: no serious hypersensitivity reactions
- Subjects having some form of injection site reaction [2]: ~ 85%
- Subjects with an event of hypotension in study 111-205 [2]: 3.3%
- Subjects with hypotension documented on vital sign measurement [2]: ~ 45%
- Mean gain in height standard deviation score ([3]; achondroplasia, 15 µg/kg, after 42 months of intervention, ref 2 (protocol list)): 1.03 SD
- Efficacy of 15 µg/kg/day dose versus 30 µg/kg/day dose ([3]; annualized growth velocity, Phase II achondroplasia, ref 2 (protocol list)): equally efficacious to the 30 µg/kg/day dose
- Symptomatic hypotensive episode ([3]; in vivo): a single patient
- ERK1/2 activation [4]: decrease ERK1/2 activation
- Degradation by neutral endopeptidase (NEP) [5]: resistance to neutral endopeptidase (NEP) degradation
- Average maximum cGMP increase from baseline across visits (urine cGMP; Day 1, Month 6, Month 12 compared): not significantly different at Day 1, Month 6 or Month 12
- Time of peak urine cGMP after administration (urine cGMP; samples at baseline, 60, 120 and 240 min after injection): 2 h
- Time to evident increase in urine cGMP after administration (urine cGMP; samples at baseline, 60, 120 and 240 min after injection, Day 1, Month 6, Month 12): ≤ 1 h
- Adjusted mean difference in annualized growth velocity ([6]; Phase 3, placebo-controlled, children with achondroplasia, 15 μg/kg/day): 1.57 cm/year
- Increase in standing height SDS ([6]; Phase 3 study of children with achondroplasia): 0.27 SD
